Laboratory results as given in ChEMBL document CHEMBL1201862, “PubChem BioAssay data set” (2004).
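Each compound was tested at five concentrations against cells in 96-well plates for 48 hours. Here, GI50 denotes the concentration required for 50% inhibition of growth.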 Activity calls are given as the source filed them. No stated cut-off is given here; in the data, active = GI50 up to about 1.1 µM and inactive = higher.

Legend:
Assay in all cases: NCI tumour cell line growth inhibition, 48 h
COLO 205 = tested on: COLO 205
EKVX = tested on: EKVX
HT-29 = tested on: HT-29
KM12 = tested on: KM12
NCI-H226 = tested on: NCI-H226
OVCAR-3 = tested on: OVCAR-3
SF-268 = tested on: SF-268
SF-295 = tested on: SF-295
SF-539 = tested on: SF-539
SK-MEL-2 = tested on: SK-MEL-2
SK-MEL-5 = tested on: SK-MEL-5
SK-OV-3 = tested on: SK-OV-3
SW-620 = tested on: SW-620
U-251 = tested on: U-251
RXF 393 = tested on: RXF 393
SR = tested on: SR

Measured: GI50

C=C1C(=O)O[C@@H]2C[C@]3(C)[C@@H](C[C@H]12)[C@](C)(O)CC[C@@H]3O
inactive: COLO 205 38.8 µM | EKVX > 100 µM | HT-29 33.3 µM | KM12 37.8 µM | NCI-H226 48.3 µM | OVCAR-3 37.9 µM | SF-268 42.4 µM | SF-295 > 100 µM | SF-539 34 µM | SK-MEL-2 69.2 µM | SK-MEL-5 91.8 µM | SK-OV-3 > 100 µM | SW-620 45.9 µM | U-251 > 100 µM

O=Cc1cn(C(=O)c2ccccc2)c2ccccc12
inactive: EKVX > 100 µM | HT-29 71.3 µM | KM12 64 µM | NCI-H226 56 µM | OVCAR-3 > 100 µM | RXF 393 53.5 µM | SF-295 38.1 µM | SF-539 80 µM | SK-MEL-2 > 100 µM | SK-MEL-5 45 µM | SK-OV-3 > 100 µM | SW-620 > 100 µM | U-251 > 100 µM

CCOC(=O)[C@H]1Nc2ccc(Cl)cc2[C@H]2OCC[C@@H]12
inactive: COLO 205 > 100 µM | EKVX > 100 µM | HT-29 > 100 µM | KM12 > 100 µM | NCI-H226 > 100 µM | OVCAR-3 > 100 µM | RXF 393 > 100 µM | SF-268 > 100 µM | SF-295 > 100 µM | SF-539 > 100 µM | SK-MEL-2 75 µM | SK-MEL-5 > 100 µM | SK-OV-3 > 100 µM | SW-620 > 100 µM | U-251 > 100 µM

O=P(Nc1cccc(Cl)c1)(Oc1ccccc1)N(CCCl)CCCl (stereo unspecified)
inactive: COLO 205 15.9 µM | EKVX 17.7 µM | HT-29 14.8 µM | KM12 14.8 µM | NCI-H226 15 µM | OVCAR-3 14.2 µM | SF-268 15.1 µM | SF-295 14.5 µM | SF-539 16.7 µM | SK-MEL-2 12.6 µM | SK-MEL-5 12.4 µM | SK-OV-3 > 100 µM | SR 31.6 µM | SW-620 16.7 µM | U-251 14.6 µM

COc1ccc(C2C(Cl)C(=O)N2NC(=O)c2ccc(N)cc2)cc1 (stereo unspecified)
inactive: COLO 205 > 100 µM | EKVX > 100 µM | HT-29 > 100 µM | KM12 > 100 µM | NCI-H226 > 100 µM | OVCAR-3 > 100 µM | SF-295 > 100 µM | SF-539 > 100 µM | SK-MEL-2 > 100 µM | SK-MEL-5 > 100 µM | SK-OV-3 > 100 µM | SW-620 > 100 µM | U-251 > 100 µM

CC1(c2ccc(Cl)cc2)C2C(=O)NC(=O)C1C(=O)NC2=O (stereo unspecified)
inactive: COLO 205 > 100 µM | EKVX > 100 µM | HT-29 > 100 µM | KM12 > 100 µM | OVCAR-3 > 100 µM | RXF 393 > 100 µM | SF-268 > 100 µM | SF-295 > 100 µM | SF-539 > 100 µM | SK-MEL-2 > 100 µM | SK-MEL-5 > 100 µM | SK-OV-3 > 100 µM | SW-620 > 100 µM

CCOC(=O)CC(=O)ON(C)C(=O)Cc1ccccc1
inactive: COLO 205 > 100 µM | EKVX > 100 µM | HT-29 > 100 µM | KM12 > 100 µM | NCI-H226 > 100 µM | OVCAR-3 > 100 µM | SF-268 > 100 µM | SF-295 > 100 µM | SF-539 > 100 µM | SK-MEL-2 > 100 µM | SK-MEL-5 > 100 µM | SK-OV-3 > 100 µM | SR > 100 µM | SW-620 > 100 µM | U-251 > 100 µM

Cc1cc(N(CCC#N)CCC#N)ccc1/N=N/c1cccc(C(=O)O)c1
inactive: COLO 205 > 100 µM | EKVX > 100 µM | HT-29 > 100 µM | KM12 > 100 µM | NCI-H226 > 100 µM | OVCAR-3 56 µM | RXF 393 > 100 µM | SF-268 > 100 µM | SF-295 > 100 µM | SF-539 > 100 µM | SK-MEL-2 > 100 µM | SK-MEL-5 > 100 µM | SK-OV-3 > 100 µM | SW-620 > 100 µM | U-251 > 100 µM

COc1ccc(C2Oc3cc(OC)c(O)cc3[C@@H]2C)cc1 (stereo partly specified)
inactive: COLO 205 > 100 µM | EKVX 56.4 µM | HT-29 40.7 µM | KM12 45 µM | NCI-H226 17.2 µM | OVCAR-3 26.5 µM | RXF 393 28.2 µM | SF-268 48.8 µM | SF-295 > 100 µM | SF-539 > 100 µM | SK-MEL-2 43 µM | SK-MEL-5 31.1 µM | SK-OV-3 > 100 µM | SW-620 17.1 µM | U-251 > 100 µM

O=C(c1ccc(O)cc1O)C1C(c2ccc(O)cc2)OC(c2ccc(O)cc2)C1C(=O)c1ccc(O)cc1O (stereo unspecified)
inactive: EKVX 21.2 µM | HT-29 34.2 µM | KM12 21.9 µM | NCI-H226 17.2 µM | OVCAR-3 18.7 µM | RXF 393 25.5 µM | SF-268 17.1 µM | SF-295 25.5 µM | SF-539 20 µM | SK-MEL-2 22 µM | SK-MEL-5 16.1 µM | SW-620 30.6 µM | U-251 16.5 µM
